Assay results: publication PMC3479967 (Evidence-based Complementary and Alternative Medicine : eCAM, 2012)

Experiments:
[1] = cited from earlier work
UGT1A8 = target: T1, UGT1A8 (Homo sapiens, UniProt Q9HAW9); test: Inhibition of recombinant UGT1A8 activity (4-MU glucuronidation)
T1 sequence (Q9HAW9 26-530): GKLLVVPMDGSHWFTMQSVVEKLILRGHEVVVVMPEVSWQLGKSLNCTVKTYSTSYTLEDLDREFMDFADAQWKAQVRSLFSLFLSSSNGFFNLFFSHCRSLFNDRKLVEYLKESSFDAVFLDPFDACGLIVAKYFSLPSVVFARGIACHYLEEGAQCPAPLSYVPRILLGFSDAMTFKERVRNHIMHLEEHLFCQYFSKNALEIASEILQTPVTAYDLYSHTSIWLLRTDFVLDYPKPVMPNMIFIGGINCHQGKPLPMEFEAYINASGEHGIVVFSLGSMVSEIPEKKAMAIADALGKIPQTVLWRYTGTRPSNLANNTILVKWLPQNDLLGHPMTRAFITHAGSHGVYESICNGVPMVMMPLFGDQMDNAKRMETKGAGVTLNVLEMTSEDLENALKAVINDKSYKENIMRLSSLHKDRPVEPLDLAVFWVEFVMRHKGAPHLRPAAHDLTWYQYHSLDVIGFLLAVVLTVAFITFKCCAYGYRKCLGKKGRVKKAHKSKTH
Experimental: A panel of recombinant human UGT supersomes (UGT1A1, UGT1A3, UGT1A4, UGT1A6, UGT1A7, UGT1A8, UGT1A9, UGT1A10, UGT2B4, UGT2B7, UGT2B15, and UGT2B17) expressed in baculovirus-infected insect cells were purchased from BD Gentest Corp. (Woburn, MA, USA).
4-MU, a nonselective substrate of UGTs, was used as probe substrate for all UGTs except UGT1A4. Incubations with each individual enzyme were conducted using conditions previously described. There was a 5 min preincubation step at 37°C before the reaction was started by addition of UDPGA. The incubation mixtures were then centrifuged at 20,500 ×g for 15 min to obtain the supernatant. Aliquots (20 μL) were then analyzed by HPLC. The HPLC system (SHIMADZU, Kyoto, Japan) consisted of an SCL-10A system controller, two LC-10AT pumps, a SIL-10A auto injector, and a SPD-10AVP UV detector. Chromatographic separation was achieved using a Kromasil ODS column (4.6 × 150 mm I.D., 5 μm particle size) at a flow rate of 1 mL/min and UV detection at 316 nm. The mobile phase consisted of 10 mM KH2PO4, pH 2.7 (A) and acetonitrile (B). The following gradient was applied at a flow rate of 1 mL/min: 0–4 min 80% A and 20% B, 4.1–8 min 50% A and 50% B, 8.1–12 min, 30% A and 70% B. All experiments were performed in two independent experiments in duplicate.
A typical incubation mixture contained recombinant human UGTs, 5 mM MgCl2, 5 mM UDPGA, 50 μg/mg protein alamethicin, 50 mM Tris-HCl buffer (pH 7.4), and various probe substrates of UGTs in the absence or presence of different concentrations of inhibitors. […] The final concentration of DMSO in the incubation system was 1% (v/v). […]
Inhibition data from experiments were graphically represented by Dixon plots. K i values were calculated by nonlinear regression using the equations for competitive inhibition (1), noncompetitive inhibition (2), or mixed inhibition (3), [22] […] The type of inhibition was determined from the enzyme inhibition models. Goodness of fit to kinetic and inhibition models was assessed from the F statistic, r ^2 values, parameter standard error estimates, and 95% confidence intervals. […]

[2] = reported value, as fraction; cited from earlier work
CYPs = system: CYPs; design: method as in PMID 16476124; conditions: previous studies; cited from earlier work
[3] = design: method as in PMID 17632044; conditions: after a single oral administration of Epimedium pubescens decoction; cited from earlier work

| IC50 (UGT1A8) [µM] | Structure (SMILES) | Fraction of icariin transformed into its intestinal metabolites in the intestinal lumen [1] | Oral bioavailability [2] | Inhibitory effect on CYPs activities (CYPs) | Reported icaritin concentration in blood [3] [nM] |
| --- | --- | --- | --- | --- | --- |
| > 100 | COc1ccc(-c2oc3c(CC=C(C)C)c(O[C@@H]4O[C@H](CO)[C@@H](O)[C@H](O)[C@H]4O)cc(O)c3c(=O)c2O)cc1 [Icariside I] |  |  |  |  |
| > 100 | COc1ccc(-c2oc3c(CC=C(C)C)c(O)cc(O)c3c(=O)c2O)cc1 [Icaritin] |  |  |  | 1.5 |

| Structure (SMILES) | IC50 (UGT1A8) [µM] | Fraction of icariin transformed into its intestinal metabolites in the intestinal lumen [1] | Oral bioavailability [2] | Inhibitory effect on CYPs activities (CYPs) | Reported icaritin concentration in blood [3] [nM] |
| --- | --- | --- | --- | --- | --- |
| COc1ccc(-c2oc3c(CC=C(C)C)c(O[C@@H]4O[C@H](CO)[C@@H](O)[C@H](O)[C@H]4O)cc(O)c3c(=O)c2O[C@@H]2O[C@@H](C)[C@H](O)[C@@H](O)[C@H]2O)cc1 [Icariin] | > 100 | about 70% | 0.12 | no inhibitory effects |  |
